Here are results for 25 compounds from ChEMBL document CHEMBL3779848, “Effect of chlorine substituent on cytotoxic activities: Design and synthesis of systematically modified 2,4-diphenyl-5H-indeno[1,2-b]pyridines” (Bioorg Med Chem Lett, 2016).

The term inhibition denotes the share of the control response that was lost under treatment. Broadly, the IC50 is the point on the concentration scale where inhibition reaches its midpoint.

Structures can show the parent of a compound that is named as a salt. Some results are limits rather than exact numbers.

Assay [1] concerns the target T1, DNA topoisomerase 1 (Homo sapiens) (UniProt P11387).
T1 sequence (whole entry): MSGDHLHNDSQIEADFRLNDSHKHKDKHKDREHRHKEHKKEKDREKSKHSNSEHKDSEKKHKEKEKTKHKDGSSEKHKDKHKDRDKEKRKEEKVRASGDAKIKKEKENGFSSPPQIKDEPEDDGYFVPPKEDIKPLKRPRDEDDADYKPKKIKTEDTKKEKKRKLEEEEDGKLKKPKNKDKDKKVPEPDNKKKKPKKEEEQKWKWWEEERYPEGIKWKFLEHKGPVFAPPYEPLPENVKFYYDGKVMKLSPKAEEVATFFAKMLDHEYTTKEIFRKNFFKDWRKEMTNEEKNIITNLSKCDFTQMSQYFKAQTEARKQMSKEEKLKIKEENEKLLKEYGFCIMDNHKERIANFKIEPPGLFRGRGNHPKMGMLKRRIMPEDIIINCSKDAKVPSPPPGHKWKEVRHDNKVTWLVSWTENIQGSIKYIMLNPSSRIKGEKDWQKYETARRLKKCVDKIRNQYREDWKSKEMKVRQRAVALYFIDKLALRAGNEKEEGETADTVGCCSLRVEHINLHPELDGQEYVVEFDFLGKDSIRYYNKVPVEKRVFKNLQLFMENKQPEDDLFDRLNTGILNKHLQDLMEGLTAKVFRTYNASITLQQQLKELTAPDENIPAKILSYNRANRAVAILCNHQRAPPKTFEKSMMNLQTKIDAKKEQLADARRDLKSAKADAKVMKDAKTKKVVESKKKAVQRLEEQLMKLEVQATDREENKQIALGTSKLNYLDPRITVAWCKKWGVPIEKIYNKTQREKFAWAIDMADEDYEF
In words: Inhibition of human recombinant DNA topoisomerase 1 at 100 uM assessed as relaxation of supercoiled DNA pBR322 after 30 mins by Agarose gel electrophoresis.

Assay [2] deals with DNA topoisomerase 2-alpha (Homo sapiens) (UniProt P11388). In words: Inhibition of human recombinant DNA topoisomerase 2alpha at 100 uM assessed as relaxation of supercoiled DNA pBR322 after 30 mins by Agarose gel electrophoresis.
Assay [3] is described as follows: Cytotoxicity against human HCT15 cells after 3 days by CCK8 assay. The assay is classed as functional, cell-based. The conditions noted are these: HCT-15, 72 h. On the technique in general: Tetrazolium dyes change colour on reduction, which living cells bring about.
The test system of assay [4] is T47D. In words: Cytotoxicity against human T47D cells after 3 days by CCK8 assay. In kind it is functional, cell-based. The note with it: 72 h.
Assay [5] has as its system HeLa. Nature of the assay: Cytotoxicity against human HeLa cells after 3 days by CCK8 assay. The assay is classed as functional, cell-based. The conditions noted are these: 72 h.
Assay [6] in a line: Potency index, ratio of IC50 for adriamycin to IC50 for test compound for cytotoxicity against human HCT15 cells. The assay is classed as functional, HCT-15.
Assay [7] has as its system T47D. In words: Potency index, ratio of IC50 for adriamycin to IC50 for test compound for cytotoxicity against human T47D cells. The assay is classed as functional.
Assay [8] relates to HeLa. Nature of the assay: Potency index, ratio of IC50 for adriamycin to IC50 for test compound for cytotoxicity against human HeLa cells. In kind it is functional.

DNA topoisomerase 2-alpha (Homo sapiens), sequence (P11388 whole entry): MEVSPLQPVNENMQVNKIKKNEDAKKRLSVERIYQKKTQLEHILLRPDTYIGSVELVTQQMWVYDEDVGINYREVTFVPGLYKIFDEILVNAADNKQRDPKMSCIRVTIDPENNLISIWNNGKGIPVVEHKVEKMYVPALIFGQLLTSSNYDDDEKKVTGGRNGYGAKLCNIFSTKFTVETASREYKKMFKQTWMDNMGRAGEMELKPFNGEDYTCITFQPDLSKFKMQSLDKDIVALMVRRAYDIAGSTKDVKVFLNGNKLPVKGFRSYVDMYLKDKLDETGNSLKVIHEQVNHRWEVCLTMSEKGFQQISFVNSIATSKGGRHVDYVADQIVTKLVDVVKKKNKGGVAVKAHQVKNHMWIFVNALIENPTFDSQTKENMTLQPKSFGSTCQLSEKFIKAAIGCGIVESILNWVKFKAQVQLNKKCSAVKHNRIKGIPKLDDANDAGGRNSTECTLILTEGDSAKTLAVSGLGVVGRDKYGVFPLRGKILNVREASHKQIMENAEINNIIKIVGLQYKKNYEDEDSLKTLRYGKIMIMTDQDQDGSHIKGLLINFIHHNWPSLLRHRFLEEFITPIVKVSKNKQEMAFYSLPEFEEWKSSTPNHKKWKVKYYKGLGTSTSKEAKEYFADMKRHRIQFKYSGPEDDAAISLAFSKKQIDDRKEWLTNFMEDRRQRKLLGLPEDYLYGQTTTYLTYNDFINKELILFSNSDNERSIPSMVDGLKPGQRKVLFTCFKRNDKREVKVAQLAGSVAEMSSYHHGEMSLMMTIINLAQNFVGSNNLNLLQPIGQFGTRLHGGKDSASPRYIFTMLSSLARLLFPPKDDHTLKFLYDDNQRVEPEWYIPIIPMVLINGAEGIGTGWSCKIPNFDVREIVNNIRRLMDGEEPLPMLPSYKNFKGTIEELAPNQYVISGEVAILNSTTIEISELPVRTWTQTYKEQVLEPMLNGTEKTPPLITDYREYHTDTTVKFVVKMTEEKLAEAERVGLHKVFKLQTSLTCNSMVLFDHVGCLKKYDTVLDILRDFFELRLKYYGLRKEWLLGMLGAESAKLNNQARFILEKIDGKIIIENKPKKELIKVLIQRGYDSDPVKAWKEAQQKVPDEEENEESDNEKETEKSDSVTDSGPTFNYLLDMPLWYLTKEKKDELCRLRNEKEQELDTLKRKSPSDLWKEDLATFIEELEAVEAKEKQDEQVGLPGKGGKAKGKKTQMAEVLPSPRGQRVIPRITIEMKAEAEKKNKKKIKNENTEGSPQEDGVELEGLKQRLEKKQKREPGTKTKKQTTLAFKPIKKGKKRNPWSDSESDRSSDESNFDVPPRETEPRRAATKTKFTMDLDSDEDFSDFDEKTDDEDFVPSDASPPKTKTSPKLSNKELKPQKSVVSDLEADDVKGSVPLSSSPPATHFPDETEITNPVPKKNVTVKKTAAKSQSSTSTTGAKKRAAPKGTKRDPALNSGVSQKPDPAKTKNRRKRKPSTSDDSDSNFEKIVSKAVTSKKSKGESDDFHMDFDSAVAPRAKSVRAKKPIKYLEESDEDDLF

With `Oc1ccc(-c2cc(-c3ccccc3)c3c(n2)-c2ccccc2C3)cc1`, the results for the inhibition in assay [1] and in assay [2] were 5.2% and 80.6%, respectively. In addition, the IC50 came to 2.01 µM in assay [3], 2.1 µM in the assay with T47D [4] and 3.93 µM in the assay on HeLa [5]. Besides, the “Ratio IC50” value in assay [6] turned out to be 0.61; in the assay with T47D [7] it was 0.63; in the assay on HeLa [8], 0.22.

In the case of `Oc1ccc(-c2cc(-c3ccc(Cl)cc3)nc3c2Cc2ccccc2-3)cc1`, the results for the inhibition in assay [1] and in assay [2] were 1.4% and 3.2%, respectively. In addition, the values for the IC50 (in assay [3]; with T47D [4]; in the assay on HeLa [5]) were 0.87 µM, 1.27 µM and 4.34 µM, respectively. For the same compound, the “Ratio IC50” value is listed as 0.11 in assay [6], 1.16 in the assay on T47D [7] and 0.19 in the assay on HeLa [8].

Regarding `Oc1cccc(-c2cc(-c3ccc(Cl)cc3)c3c(n2)-c2ccccc2C3)c1`, the results for the inhibition in assay [1] and in assay [2] were 5.8% and 3.8%, respectively. Besides, the results for the IC50 (in assay [3]; with T47D [4]; in the assay on HeLa [5]) were 2.09 µM, 1.49 µM and 2.27 µM, respectively. The “Ratio IC50” value is on record as 0.05 in assay [6], 0.99 with T47D [7] and 0.36 in the assay with HeLa [8].

In the case of `Oc1ccccc1-c1cc(-c2cccc(Cl)c2)c2c(n1)-c1ccccc1C2`, the inhibition in assay [1] came to 1.1%; in assay [2], 2.8%. Further, the IC50 (in assay [3]; with T47D [4]; with HeLa [5]) was more than 50 µM in each case.

Turning to `Oc1cccc(-c2cc(-c3ccccc3)nc3c2Cc2ccccc2-3)c1`, the values for the inhibition in assay [1] and in assay [2] were 20.6% and 70.5%, respectively. Moreover, the IC50 in assay [3] amounted to 1.35 µM; in the assay on T47D [4] it was 1.55 µM; with HeLa [5] it was 4 µM. The “Ratio IC50” value in assay [6] was determined as 0.91; with T47D [7] it was 0.86; in the assay on HeLa [8] it was 0.22.

With `Oc1ccccc1-c1cc(-c2ccccc2Cl)c2c(n1)-c1ccccc1C2`, the results for the inhibition in assay [1] and in assay [2] were 0% and 4.8%, respectively. The IC50 (in assay [3]; with T47D [4]; in the assay on HeLa [5]) was more than 50 µM each time.

Consider `c1ccc(-c2cc(-c3ccccc3)c3c(n2)-c2ccccc2C3)cc1`, for which the results for the inhibition in assay [1] and in assay [2] were 0% and 17.8%, respectively. Further, the IC50 was more than 50 µM in assay [3], 26.8 µM in the assay on T47D [4] and 17.3 µM with HeLa [5].

In the case of `Oc1ccccc1-c1cc(-c2ccc(Cl)cc2)c2c(n1)-c1ccccc1C2`, the inhibition in assay [1] was found to be 8.3%; in assay [2], 2.8%. For the same compound, the half-inhibitory concentration (IC50) (in assay [3]; in the assay on T47D [4]; in the assay on HeLa [5]) was more than 50 µM in each case.

On to `Oc1ccccc1-c1cc(-c2ccc(Cl)cc2)nc2c1Cc1ccccc1-2`, for which the values for the inhibition in assay [1] and in assay [2] were 0% and 2.7%, respectively. Moreover, the IC50 (in assay [3]; in the assay on T47D [4]; in the assay on HeLa [5]) was more than 50 µM throughout.

`Oc1cccc(-c2cc(-c3ccc(Cl)cc3)nc3c2Cc2ccccc2-3)c1`: the results for the inhibition in assay [1] and in assay [2] were 0% and 3.9%, respectively. Besides, the 50% inhibitory concentration (IC50) was 1.88 µM in assay [3], 1.36 µM in the assay on T47D [4] and 6.58 µM with HeLa [5]. In addition, the “Ratio IC50” value in assay [6] is on record as 0.05; in the assay with T47D [7], 1.08; with HeLa [8], 0.12.

Regarding `COc1cccc2c1C(=O)c1c(O)c3c(c(O)c1C2=O)C[C@@](O)(C(=O)CO)C[C@@H]3O[C@H]1C[C@H](N)[C@H](O)[C@H](C)O1` [DOXORUBICIN HYDROCHLORIDE], in the assay on HeLa [5], the 50% inhibitory concentration (IC50) is 0.82 µM.

As for `Oc1cccc(-c2cc(-c3cccc(Cl)c3)nc3c2Cc2ccccc2-3)c1`, the inhibition worked out at 0% in assay [1] and 3.2% in assay [2]. For the same compound, the IC50 is 3.09 µM in assay [3], 1.32 µM in the assay with T47D [4] and 4.59 µM in the assay with HeLa [5]. The “Ratio IC50” value is reported as 0.03 in assay [6], 1.11 in the assay with T47D [7] and 0.18 in the assay on HeLa [8].

In the case of `Oc1ccc(-c2cc(-c3ccccc3)nc3c2Cc2ccccc2-3)cc1`, the inhibition stood at 25.9% in assay [1] and 65.9% in assay [2]. Moreover, the concentration for half-maximal inhibition (IC50) came out at 2.15 µM in assay [3], 1.36 µM in the assay on T47D [4] and 4.84 µM in the assay with HeLa [5]. Besides, the “Ratio IC50” value came to 0.57 in assay [6], 0.98 in the assay on T47D [7] and 0.18 with HeLa [8].

On to `Oc1ccc(-c2cc(-c3ccccc3Cl)nc3c2Cc2ccccc2-3)cc1`, for which the values for the inhibition in assay [1] and in assay [2] were 0% and 3.5%, respectively. The concentration for half-maximal inhibition (IC50) in assay [3] is 1.82 µM; with T47D [4], 0.79 µM; with HeLa [5], 2.7 µM. The results for the “Ratio IC50” value (in assay [6]; in the assay with T47D [7]; in the assay with HeLa [8]) were 0.05, 1.86 and 0.3, respectively.

Consider `Oc1cccc(-c2cc(-c3ccccc3Cl)c3c(n2)-c2ccccc2C3)c1`, for which the inhibition stood at 29.3% in assay [1] and 6.7% in assay [2]. The IC50 in assay [3] worked out at 1.17 µM; in the assay on T47D [4] it was 2.19 µM; in the assay with HeLa [5] it was 2.65 µM. In addition, the “Ratio IC50” value in assay [6] is 0.08; in the assay with T47D [7], 0.67; with HeLa [8], 0.31.

With `Oc1ccccc1-c1cc(-c2ccccc2)nc2c1Cc1ccccc1-2`, the inhibition in assay [1] was 15.1%; in assay [2], 69.6%. Moreover, the IC50 (in assay [3]; with T47D [4]; with HeLa [5]) was more than 50 µM in each case.

Consider `Oc1ccc(-c2cc(-c3cccc(Cl)c3)nc3c2Cc2ccccc2-3)cc1`, for which the inhibition came out at 0% in assay [1] and 3% in assay [2]. Also, the IC50 in assay [3] worked out at 0.31 µM; in the assay with T47D [4] it was 1.42 µM; with HeLa [5], 5.04 µM. Further, the “Ratio IC50” value came out at 0.32 in assay [6], 1.03 in the assay on T47D [7] and 0.16 with HeLa [8].

Regarding `CC[C@@]1(O)C(=O)OCc2c1cc1n(c2=O)Cc2cc3ccccc3nc2-1` [CAMPTOTHECIN], the figures for the IC50 (in assay [3]; in the assay with T47D [4]; in the assay on HeLa [5]) were 1.29 µM, 11.2 µM and 0.59 µM, respectively.

With `Oc1ccc(-c2cc(-c3ccccc3Cl)c3c(n2)-c2ccccc2C3)cc1`, the inhibition stood at 15.5% in assay [1] and 1.6% in assay [2]. Also, the IC50 in assay [3] is 0.84 µM; with T47D [4], 1.63 µM; in the assay on HeLa [5], 3.41 µM. Further, the “Ratio IC50” value was 0.12 in assay [6], 0.9 in the assay on T47D [7] and 0.24 in the assay on HeLa [8].

`Oc1ccccc1-c1cc(-c2ccccc2Cl)nc2c1Cc1ccccc1-2`: the values for the inhibition in assay [1] and in assay [2] were 0.8% and 1.9%, respectively. Moreover, the IC50 in assay [3] was 6.23 µM; in the assay on T47D [4] it was 6.64 µM; in the assay on HeLa [5] it was 7.01 µM.

Consider `COc1cc([C@@H]2c3cc4c(cc3[C@@H](O[C@@H]3O[C@@H]5CO[C@@H](C)O[C@H]5[C@H](O)[C@H]3O)[C@H]3COC(=O)[C@H]23)OCO4)cc(OC)c1O` [ETOPOSIDE], for which the 50% inhibitory concentration (IC50) came to 2.82 µM in assay [3], 1.84 µM in the assay on T47D [4] and 0.18 µM in the assay on HeLa [5].

`Oc1ccc(-c2cc(-c3ccc(Cl)cc3)c3c(n2)-c2ccccc2C3)cc1`: the figures for the inhibition in assay [1] and in assay [2] were 19.1% and 8.5%, respectively. Also, the IC50 was 0.93 µM in assay [3], 0.88 µM in the assay on T47D [4] and 2.45 µM in the assay with HeLa [5]. Moreover, the results for the “Ratio IC50” value (in assay [6]; in the assay with T47D [7]; in the assay on HeLa [8]) were 0.11, 1.67 and 0.33, respectively.

Regarding `Oc1cccc(-c2cc(-c3ccccc3)c3c(n2)-c2ccccc2C3)c1`, the inhibition in assay [1] is 2.3%; in assay [2] it was 76%. Further, the IC50 in assay [3] is 2.71 µM; in the assay on T47D [4], 3.93 µM; in the assay on HeLa [5] it was 2.99 µM. Further, the “Ratio IC50” value in assay [6] was found to be 0.45; with T47D [7] it was 0.34; in the assay on HeLa [8] it was 0.29.

On to `Oc1ccccc1-c1cc(-c2ccccc2)c2c(n1)-c1ccccc1C2`, for which the inhibition in assay [1] was 1.3%; in assay [2], 36.4%. For the same compound, the IC50 (in assay [3]; in the assay on T47D [4]; in the assay on HeLa [5]) was more than 50 µM in each case.

As to `Oc1ccccc1-c1cc(-c2cccc(Cl)c2)nc2c1Cc1ccccc1-2`, the figures for the inhibition in assay [1] and in assay [2] were 0% and 5.4%, respectively. Moreover, the IC50 is 30.3 µM in assay [3], more than 50 µM in the assay with T47D [4] and 17.1 µM in the assay on HeLa [5].
